According to patent US20240158446A1, “CYCLIC COMPOUND HAVING SELECTIVE INHIBITORY ACTION ON KRAS OVER HRAS AND NRAS” (CHUGAI SEIYAKU KABUSHIKI KAISHA, priority 2021, published 2024):
Like-named read-outs stand apart in the source and are kept apart here. Where a SMILES comes first, the peptide text is derived from it. Bridges are numbered along the chain shown (N, C = ends). [ ]: non-standard residue; d: D form. The star is where a group is joined. hPhe(3,5-F2-4-CF3) = N[C@@H](CCc1cc(F)c(C(F)(F)F)c(F)c1)C(=O)O; hPhe(3-Cl-4-CF3) = N[C@@H](CCc1ccc(C(F)(F)F)c(Cl)c1)C(=O)O; NPrPhe(4-CF3) = CCCN[C@@H](Cc1ccc(C(F)(F)F)cc1)C(=O)O; NMeGly(cPent) = CN[C@H](C(=O)O)C1CCCC1; NMeD = CN[C@@H](CC(=O)O)C(=O)O; NMeL = CN[C@@H](CC(C)C)C(=O)O; NMeNva = CCC[C@H](NC)C(=O)O; Iva = CC[C@](C)(N)C(=O)O; Morpholide = C1CN(*)CCO1; NMeA = CN[C@@H](C)C(=O)O; Ac5c = NC1(C(=O)O)CCCC1; Aze = O=C(O)[C@@H]1CCN1; Sar = CNCC(=O)O

Key:
[1] = biological target: GDP-bound HRAS wild-type protein (Homo sapiens, UniProt P01112); test: Binding to HRAS by surface plasmon resonance (SPR), Single Cycle Kinetics; conditions: for HRAS/KRAS (ratio of KD value with respect to HRAS to KD value with respect to KRAS) / HRAS/KRAS (ratio of KD value for HRAS to KD value for KRAS): SPR, GDP-bound HRAS wild-type protein vs GDP-bound KRAS wild-type protein; for HRAS/KRAS (ratio of KD value with respect to GDP-bound HRAS wild-type protein to KD value with respect to KRAS): SPR KD ratio HRAS/KRAS, class symbols
GDP-bound HRAS wild-type protein, sequence (P01112 whole entry): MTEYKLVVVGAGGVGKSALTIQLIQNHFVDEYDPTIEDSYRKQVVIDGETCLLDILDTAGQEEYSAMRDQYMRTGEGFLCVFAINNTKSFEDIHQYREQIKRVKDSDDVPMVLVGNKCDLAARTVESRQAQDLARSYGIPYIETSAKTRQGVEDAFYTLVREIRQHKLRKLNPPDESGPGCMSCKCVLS

[2] = biological target: GDP-bound NRAS wild-type protein (Homo sapiens, UniProt P01111); test: Binding to NRAS by surface plasmon resonance (SPR), Single Cycle Kinetics; conditions: for NRAS/KRAS (ratio of KD value with respect to NRAS to KD value with respect to KRAS) / NRAS/KRAS (ratio of KD value for NRAS to KD value for KRAS): SPR, GDP-bound NRAS wild-type protein vs GDP-bound KRAS wild-type protein; for NRAS/KRAS (ratio of KD value with respect to GDP-bound NRAS wild-type protein to KD value with respect to KRAS): SPR KD ratio NRAS/KRAS, class symbols
GDP-bound NRAS wild-type protein, sequence (P01111 whole entry): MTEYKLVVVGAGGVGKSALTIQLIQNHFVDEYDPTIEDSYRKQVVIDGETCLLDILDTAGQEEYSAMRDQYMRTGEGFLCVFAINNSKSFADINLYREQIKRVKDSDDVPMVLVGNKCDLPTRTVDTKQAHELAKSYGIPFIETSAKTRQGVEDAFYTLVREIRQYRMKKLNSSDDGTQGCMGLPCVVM

[3] = biological target: GDP-bound KRAS wild-type protein (Homo sapiens, UniProt P01116); test: Binding to KRAS by surface plasmon resonance (SPR), Single Cycle Kinetics; conditions: GDP-bound KRAS wild-type protein, read-out: KRAS KD
GDP-bound KRAS wild-type protein, sequence (P01116 whole entry): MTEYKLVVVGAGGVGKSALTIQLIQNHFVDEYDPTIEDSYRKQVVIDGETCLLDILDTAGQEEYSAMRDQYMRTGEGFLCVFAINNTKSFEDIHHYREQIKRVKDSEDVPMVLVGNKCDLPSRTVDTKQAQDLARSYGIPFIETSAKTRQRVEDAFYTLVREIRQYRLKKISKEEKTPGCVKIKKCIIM

[4] = SPR Single Cycle Kinetics, 1:1 binding model

Structure (SMILES)	Kd [3, 4]	Kd ([3]; SPR, Single Cycle Kinetics)	HRAS/KRAS (ratio of KD value for HRAS to KD value for KRAS) [1]	NRAS/KRAS (ratio of KD value for NRAS to KD value for KRAS) [2]	other results
CC[C@H](C)[C@@H]1NC(=O)[C@H](CC(C)C)N(C)C(=O)C[C@@H](C(=O)N2CCOCC2)N(C)C(=O)[C@H](C2CCCC2)N(C)C(=O)C2(CCCC2)NC(=O)[C@@H]2CCCN2C(=O)[C@H](CCc2cc(F)c(C(F)(F)F)c(F)c2)NC(=O)CN(C)C(=O)[C@H](Cc2ccc(C(F)(F)F)cc2)N2CCCC[C@@H](C2=O)N(C)C(=O)[C@@H]2CCCCN2C1=O [PP0548]	15000 pM				HRAS/KRAS (ratio of KD value with respect to HRAS to KD value with respect to KRAS) [1]: B (a compound having 3 or more and less than 10 is denoted as B); NRAS/KRAS (ratio of KD value with respect to NRAS to KD value with respect to KRAS) [2]: C (A compound having a KD ratio of 0.1 or more and less than 3 is denoted as C)
CCC[C@H]1C(=O)N[C@@H]([C@@H](C)CC)C(=O)N(C)[C@@H](C)C(=O)N2CC[C@H]2C(=O)N(CCC)[C@@H](Cc2ccc(C(F)(F)F)cc2)C(=O)N(C)CC(=O)N[C@@H](CCc2ccc(C(F)(F)F)c(Cl)c2)C(=O)N2CCC[C@H]2C(=O)NC2(CCCC2)C(=O)N(C)[C@@H](C2CCCC2)C(=O)N(C)[C@H](C(=O)N2CCOCC2)CC(=O)N1C [PP0193] ([NMeNva]I[NMeA][Aze][NPrPhe(4-CF3)][Sar][hPhe(3-Cl-4-CF3)]P[Ac5c][NMeGly(cPent)][NMeD]-Morpholide; lactam N-11)	170 pM		C (A compound having a KD ratio of 0.1 or more and less than 3 is denoted as C)	C (A compound having a KD ratio of 0.1 or more and less than 3 is denoted as C)	
CCCN1C(=O)CN(C)C(=O)CN(C)C(=O)[C@H]([C@@H](C)CC)NC(=O)[C@H](CC(C)C)N(C)C(=O)C[C@@H](C(=O)N2CCOCC2)N(C)C(=O)[C@H](C2CCCC2)N(C)C(=O)C2(CCCC2)NC(=O)[C@@H]2CCCN2C(=O)[C@H](CCc2ccc(C(F)(F)F)c(Cl)c2)NC(=O)CN(C)C(=O)[C@@H]1Cc1ccc(C(F)(F)F)cc1 [PP0060] ([NMeL]I[Sar][Sar][NPrPhe(4-CF3)][Sar][hPhe(3-Cl-4-CF3)]P[Ac5c][NMeGly(cPent)][NMeD]-Morpholide; lactam N-11)	99 pM		B (a compound having 3 or more and less than 10 is denoted as B)	B (a compound having 3 or more and less than 10 is denoted as B)	
CC[C@H](C)[C@@H]1NC(=O)[C@H](CC)N(C)C(=O)C[C@@H](C(=O)N(C)C)N(C)C(=O)[C@H](C2CCCC2)N(C)C(=O)C2(CCC2)NC(=O)[C@@H]2C[C@H](N3CCC(F)(F)CC3)CN2C(=O)[C@H](CCc2cc(F)c(C(F)(F)F)c(F)c2)NC(=O)CN(C)C(=O)[C@H](Cc2ccc(C(F)(F)F)cc2)N2CCCC[C@@H](C2=O)N(C)C(=O)CN(C)C1=O [PP0732]	39 pM				HRAS/KRAS (ratio of KD value with respect to HRAS to KD value with respect to KRAS) [1]: B (a compound having 3 or more and less than 10 is denoted as B); NRAS/KRAS (ratio of KD value with respect to NRAS to KD value with respect to KRAS) [2]: C (A compound having a KD ratio of 0.1 or more and less than 3 is denoted as C)
CCCN1C(=O)CN(C)C(=O)CN(C)C(=O)[C@H]([C@@H](C)CC)NC(=O)[C@H](CC(C)C)N(C)C(=O)C[C@@H](C(=O)N2CCOCC2)N(C)C(=O)[C@H](C2CCCC2)N(C)C(=O)[C@](C)(CC)NC(=O)[C@@H]2CCCN2C(=O)[C@H](CCc2cc(F)c(C(F)(F)F)c(F)c2)NC(=O)CN(C)C(=O)[C@@H]1Cc1ccc(C(F)(F)F)cc1 [PP0754] ([NMeL]I[Sar][Sar][NPrPhe(4-CF3)][Sar][hPhe(3,5-F2-4-CF3)]P[Iva][NMeGly(cPent)][NMeD]-Morpholide; lactam N-11)	490 pM				HRAS/KRAS (ratio of KD value with respect to HRAS to KD value with respect to KRAS) [1]: C (A compound having a KD ratio of 0.1 or more and less than 3 is denoted as C); NRAS/KRAS (ratio of KD value with respect to NRAS to KD value with respect to KRAS) [2]: B (a compound having 3 or more and less than 10 is denoted as B)
CCO[C@@H]1C[C@H]2C(=O)NC3(CCC3)C(=O)N(C)[C@@H](C3CCCC3)C(=O)N(C)[C@H](C(=O)N(C)C)CC(=O)N(C)[C@@H](CC3CC3)C(=O)N[C@@H]([C@@H](C)CC)C(=O)N(C)CC(=O)N(C)[C@H]3CCCCCN(C3=O)[C@@H](Cc3ccc(C(F)(F)F)cc3)C(=O)N(C)CC(=O)N[C@@H](CCc3cc(F)c(C(F)(F)F)c(F)c3)C(=O)N2C1 [PP0667]	270 pM				HRAS/KRAS (ratio of KD value with respect to HRAS to KD value with respect to KRAS) [1]: B (a compound having 3 or more and less than 10 is denoted as B); NRAS/KRAS (ratio of KD value with respect to NRAS to KD value with respect to KRAS) [2]: B (a compound having 3 or more and less than 10 is denoted as B)
CCO[C@@H]1C[C@H]2C(=O)NC3(CCC3)C(=O)N(C)[C@@H](C3CCCC3)C(=O)N(C)[C@H](C)CC(=O)N(C)[C@@H](CC3CC3)C(=O)N[C@@H]([C@@H](C)CC)C(=O)N(C)CC(=O)N(C)[C@H]3C/C=C\CCN(C3=O)[C@@H](Cc3ccc(F)cc3)C(=O)N(C)CC(=O)N[C@@H](CCc3cc(F)c(C(F)(F)F)c(F)c3)C(=O)N2C1 [PP1490]					HRAS/KRAS (ratio of KD value for HRAS to KD value for KRAS) ([1]; KD ratio class): B (a compound having 3 or more and less than 10 is denoted as B); NRAS/KRAS (ratio of KD value for NRAS to KD value for KRAS) ([2]; KD ratio class): B (a compound having 3 or more and less than 10 is denoted as B); Kd ([3]; SPR, Single Cycle Kinetics, 1:1 binding model): 600 pM

Now from value to compound, other results behind:

Kd [3, 4]	Kd ([3]; SPR, Single Cycle Kinetics)	Structure (SMILES)	HRAS/KRAS (ratio of KD value for HRAS to KD value for KRAS) [1]	NRAS/KRAS (ratio of KD value for NRAS to KD value for KRAS) [2]	other results
	18 pM	CCCN1C(=O)CN(C)C(=O)CN(C)C(=O)[C@H]([C@@H](C)CC)NC(=O)[C@@H]2CCCCCCOc3ccc(cc3)C[C@H]1C(=O)N(C)CC(=O)N[C@@H](CCc1cc(F)c(C(F)(F)F)c(F)c1)C(=O)N1C[C@H](OCC)C[C@H]1C(=O)NC1(CCCC1)C(=O)N(C)[C@@H](C1CCCC1)C(=O)N(C)[C@H](C(=O)N(C)C)CC(=O)N2C [PP0896]	C (A compound having a KD ratio of 0.1 or more and less than 3 is denoted as C)	C (A compound having a KD ratio of 0.1 or more and less than 3 is denoted as C)	
	2200 pM	CC[C@H](C)[C@@H]1NC(=O)[C@H](CC(C)C)N(C)C(=O)C[C@@H](C(=O)N2CCOCC2)N(CC)C(=O)[C@H](C2CCCC2)N(C)C(=O)C2(CCCC2)NC(=O)[C@@H]2CCCN2C(=O)[C@H](CCc2ccc(C(F)(F)F)c(Cl)c2)NC(=O)CN(C)C(=O)[C@H](Cc2ccc(F)cc2)N2CCCCC[C@@H](C2=O)N(C)C(=O)CN(C)C1=O [PP0970]	B (a compound having 3 or more and less than 10 is denoted as B)	B (a compound having 3 or more and less than 10 is denoted as B)	
	4600 pM	CCO[C@@H]1C[C@H]2C(=O)N[C@]3(C)CCCCCC[C@@H](C(=O)N[C@@H]([C@@H](C)CC)C(=O)N(C)CC(=O)N(C)[C@H]4CCCCN(C4=O)[C@@H](Cc4ccc(C(F)(F)F)cc4)C(=O)N(C)CC(=O)N[C@@H](CCc4cc(F)c(C(F)(F)F)c(F)c4)C(=O)N2C1)N(C)C(=O)C[C@@H](C(=O)N1CCOCC1)N(C)C(=O)[C@H](C1CCCC1)N(C)C3=O [PP0992]	B (a compound having 3 or more and less than 10 is denoted as B)	B (a compound having 3 or more and less than 10 is denoted as B)	
	570 pM	CCO[C@@H]1C[C@H]2C(=O)NC3(CCC3)C(=O)N(C)[C@@H](C3CCCC3)C(=O)N(C)[C@H](C(=O)N3CCOCC3)CC(=O)N(C)[C@@H](COC)C(=O)N[C@@H]([C@@H](C)CC)C(=O)N(C)CC(=O)N(C)[C@H]3CCCCCN(C3=O)[C@@H](Cc3ccc(C(F)(F)F)cc3)C(=O)N(C)CC(=O)N[C@@H](CCc3ccc(C(F)(F)F)c(F)c3)C(=O)N2C1 [PP0848]	B (a compound having 3 or more and less than 10 is denoted as B)	B (a compound having 3 or more and less than 10 is denoted as B)	
450 pM		CCC[C@H]1C(=O)N[C@@H]([C@@H](C)CC)C(=O)N(C)CC(=O)N(C)[C@H]2C/C=C\CCN(C2=O)[C@@H](Cc2ccc(C(F)(F)F)cc2)C(=O)N(C)CC(=O)N[C@@H](CCc2ccc(Cl)c(OC)c2)C(=O)N2C[C@H](OCC)C[C@H]2C(=O)NC2(CC(C)(C)C2)C(=O)N(C)[C@@H](C2CCCC2)C(=O)N(C)[C@H](C(=O)N(C)C)CC(=O)N1C [PP2788]			HRAS/KRAS (ratio of KD value with respect to GDP-bound HRAS wild-type protein to KD value with respect to KRAS) [1]: A (a compound having 10 or more and less than 20 is denoted as A); NRAS/KRAS (ratio of KD value with respect to GDP-bound NRAS wild-type protein to KD value with respect to KRAS) [2]: A (a compound having 10 or more and less than 20 is denoted as A)
	360 pM	CCCOC[C@H]1C(=O)N[C@@H]([C@@H](C)CC)C(=O)N2CCC[C@H]2C(=O)N(C)[C@H]2C/C=C\CCN(C2=O)[C@@H](Cc2ccc(C)cc2)C(=O)N(C)CC(=O)N[C@@H](CCc2ccc(C(F)(F)F)c(OC)c2)C(=O)N2C[C@H](OCC)C[C@H]2C(=O)N(C)C2(CCC2)C(=O)N(C)[C@@H](C(CC)CC)C(=O)N(C)[C@H](C(=O)N(C)C)CC(=O)N1C [PP2331]	A (a compound having 10 or more and less than 20 is denoted as A)	AA (a compound having 20 or more is denoted as AA)	
420 pM		CCC[C@H]1C(=O)N[C@@H]([C@@H](C)CC)C(=O)N(C)CC(=O)N(C)[C@H]2C/C=C\CCN(C2=O)[C@@H](Cc2ccc(C)cc2)C(=O)N(C)CC(=O)N[C@@H](CCc2cc(Cl)c3sccc3c2)C(=O)N2C[C@H](OCC)C[C@H]2C(=O)NC2(CC(C)(C)C2)C(=O)N(C)[C@@H](C(CC)CC)C(=O)N(C)[C@H](C(=O)N(C)C)CC(=O)N1C [PP2890]			HRAS/KRAS (ratio of KD value with respect to GDP-bound HRAS wild-type protein to KD value with respect to KRAS) [1]: A (a compound having 10 or more and less than 20 is denoted as A); NRAS/KRAS (ratio of KD value with respect to GDP-bound NRAS wild-type protein to KD value with respect to KRAS) [2]: AA (a compound having 20 or more is denoted as AA)
